{"source": "paper PMC6429214", "about": "“Design, Synthesis and Biological Evaluation of Isoxazole-Based CK1 Inhibitors Modified with Chiral Pyrrolidine Scaffolds” (Molecules, 2019)", "test_in_all_cases": "33PanQinase panel", "type_in_all_cases": "biochemical", "key": {"FES": {"target": "T1, FES (Homo sapiens, UniProt P07332)", "T1 construct": "purchased ProQinase", "details": "read-out: Residual Activity (%)", "summary_of_the_method": "(§1)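 Single dose, 1 µM. Radiometric 33P kinase activity assay with final DMSO at 1%; values give residual activity as a percentage of control.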"}, "EGF-R": {"target": "T2, EGF-R (Homo sapiens, UniProt P00533)", "T2 construct": "purchased ProQinase", "details": "read-out: Residual Activity (%)", "summary_of_the_method": "as §1"}, "RPS6KA1": {"target": "T3, RPS6KA1 (Homo sapiens, UniProt Q15418)", "T3 construct": "purchased ProQinase", "details": "RPS6KA1, 1 µM; read-out: Residual Activity (%)", "summary_of_the_method": "as §1"}, "SGK2": {"target": "T4, SGK2 (Homo sapiens, UniProt Q9HBY8)", "T4 construct": "purchased ProQinase", "details": "SGK2, 1 µM; read-out: Residual Activity (%)", "summary_of_the_method": "as §1"}, "FYN": {"target": "T5, FYN (Homo sapiens, UniProt P06241)", "T5 construct": "purchased ProQinase", "details": "read-out: Residual Activity (%)", "summary_of_the_method": "as §1"}, "HCK": {"target": "T6, HCK (Homo sapiens, UniProt P08631)", "T6 construct": "purchased ProQinase", "details": "read-out: Residual Activity (%)", "summary_of_the_method": "as §1"}, "PKA": {"target": "T7, PKA (Homo sapiens, UniProt P17612)", "T7 construct": "purchased ProQinase", "details": "read-out: Residual Activity (%)", "summary_of_the_method": "as §1"}, "DYRK2": {"target": "T8, DYRK2 (Homo sapiens, UniProt Q92630)", "T8 construct": "purchased ProQinase", "details": "DYRK2, 1 µM; read-out: Residual Activity (%)", "summary_of_the_method": "as §1"}, "VRK1": {"target": "T9, VRK1 (Homo sapiens, UniProt Q99986)", "T9 construct": "purchased ProQinase", "details": "VRK1, 1 µM; read-out: Residual Activity (%)", "summary_of_the_method": "as §1"}, "BTK": {"target": "T10, BTK (Homo sapiens, UniProt Q06187)", "T10 construct": "purchased ProQinase", "details": "read-out: Residual Activity (%)", "summary_of_the_method": "as §1"}, "AMPK-alpha1 aa1-550": {"target": "T11, AMPK-alpha1 aa1-550 (Homo sapiens, UniProt Q13131)", "T11 construct": "purchased ProQinase", "details": "AMPK-alpha1 aa1-550, 1 µM; read-out: Residual Activity (%)", "summary_of_the_method": "as §1"}, "MUSK": {"target": "T12, MUSK (Homo sapiens, UniProt O15146)", "T12 construct": "purchased ProQinase", "T12 sequence (O15146 24-869)": "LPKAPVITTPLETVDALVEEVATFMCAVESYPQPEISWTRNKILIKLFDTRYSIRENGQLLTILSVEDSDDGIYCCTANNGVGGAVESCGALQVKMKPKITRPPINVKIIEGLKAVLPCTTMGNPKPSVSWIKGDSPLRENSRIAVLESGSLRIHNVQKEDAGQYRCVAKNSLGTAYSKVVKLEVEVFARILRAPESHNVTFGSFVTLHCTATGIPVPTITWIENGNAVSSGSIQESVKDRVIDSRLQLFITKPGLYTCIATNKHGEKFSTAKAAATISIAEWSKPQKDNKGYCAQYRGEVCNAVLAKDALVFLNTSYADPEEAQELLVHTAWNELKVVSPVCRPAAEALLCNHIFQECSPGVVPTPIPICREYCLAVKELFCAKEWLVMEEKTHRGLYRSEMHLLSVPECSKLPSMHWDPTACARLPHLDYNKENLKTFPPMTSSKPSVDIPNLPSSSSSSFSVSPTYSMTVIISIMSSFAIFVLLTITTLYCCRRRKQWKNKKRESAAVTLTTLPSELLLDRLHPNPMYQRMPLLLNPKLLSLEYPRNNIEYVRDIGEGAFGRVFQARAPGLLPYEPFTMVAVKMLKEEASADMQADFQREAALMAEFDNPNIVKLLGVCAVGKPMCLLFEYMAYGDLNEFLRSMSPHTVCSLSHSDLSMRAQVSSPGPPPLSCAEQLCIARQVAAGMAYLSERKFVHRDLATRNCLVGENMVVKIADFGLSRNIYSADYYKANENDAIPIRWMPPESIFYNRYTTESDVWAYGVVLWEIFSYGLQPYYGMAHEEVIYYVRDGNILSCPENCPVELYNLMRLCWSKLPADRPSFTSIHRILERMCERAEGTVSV", "details": "read-out: Residual Activity (%)", "summary_of_the_method": "as §1"}, "DCAMKL2": {"target": "T13, DCAMKL2 (Homo sapiens, UniProt Q8N568)", "T13 construct": "purchased ProQinase", "details": "DCAMKL2, 1 µM; read-out: Residual Activity (%)", "summary_of_the_method": "as §1"}, "ZAP70": {"target": "T14, ZAP70 (Homo sapiens, UniProt P43403)", "T14 construct": "purchased ProQinase", "details": "ZAP70, 1 µM; read-out: Residual Activity (%)", "summary_of_the_method": "as §1"}, "CDK1/CycA2": {"target": "T15, CDK1/CycA2 (Homo sapiens, UniProt P06493)", "T15 construct": "purchased ProQinase", "details": "CDK1/CycA2, 1 µM; read-out: Residual Activity (%)", "summary_of_the_method": "as §1"}, "MKK6 S207D/T211D**": {"target": "T16, MKK6 S207D/T211D** (Homo sapiens, UniProt P52564, S207D/T211D)", "T16 construct": "purchased ProQinase", "T16 sequence (P52564 whole entry S207D/T211D)": "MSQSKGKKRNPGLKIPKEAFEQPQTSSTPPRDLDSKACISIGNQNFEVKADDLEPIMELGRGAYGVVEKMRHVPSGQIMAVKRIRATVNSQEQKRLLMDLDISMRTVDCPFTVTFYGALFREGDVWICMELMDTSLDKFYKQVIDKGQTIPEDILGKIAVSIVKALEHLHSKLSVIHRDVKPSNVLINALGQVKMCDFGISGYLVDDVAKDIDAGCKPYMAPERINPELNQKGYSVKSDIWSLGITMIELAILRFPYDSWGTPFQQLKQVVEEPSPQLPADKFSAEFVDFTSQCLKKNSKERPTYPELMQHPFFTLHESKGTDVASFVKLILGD", "details": "read-out: Residual Activity (%)", "summary_of_the_method": "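Activity-based radiometric profiling: one concentration (1 µM), 1% DMSO in reaction mix, output as % remaining activity against DMSO-treated control.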"}, "DYRK1B": {"target": "T17, DYRK1B (Homo sapiens, UniProt Q9Y463)", "T17 construct": "purchased ProQinase", "details": "read-out: Residual Activity (%)", "summary_of_the_method": "as §1"}, "ACV-R1B": {"target": "T18, ACV-R1B (Homo sapiens, UniProt P36896)", "T18 construct": "purchased ProQinase", "T18 sequence (P36896 24-505)": "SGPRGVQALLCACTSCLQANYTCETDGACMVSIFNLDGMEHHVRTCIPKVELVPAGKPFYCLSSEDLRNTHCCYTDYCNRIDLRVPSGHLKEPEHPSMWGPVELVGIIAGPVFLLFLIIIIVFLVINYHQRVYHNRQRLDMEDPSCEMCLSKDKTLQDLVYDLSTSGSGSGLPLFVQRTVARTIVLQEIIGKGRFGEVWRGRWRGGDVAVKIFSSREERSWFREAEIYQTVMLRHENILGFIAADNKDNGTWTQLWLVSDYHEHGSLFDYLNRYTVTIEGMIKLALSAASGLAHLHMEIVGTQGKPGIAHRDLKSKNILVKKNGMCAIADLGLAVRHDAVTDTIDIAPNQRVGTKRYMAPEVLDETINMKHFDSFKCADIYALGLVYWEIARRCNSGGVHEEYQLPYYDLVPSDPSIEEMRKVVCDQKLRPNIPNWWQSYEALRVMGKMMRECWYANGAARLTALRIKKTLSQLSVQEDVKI", "details": "read-out: Residual Activity (%)", "summary_of_the_method": "as §1"}, "MAPKAPK2": {"target": "T19, MAPKAPK2 (Homo sapiens, UniProt P49137)", "T19 construct": "purchased ProQinase", "details": "MAPKAPK2, 1 µM; read-out: Residual Activity (%)", "summary_of_the_method": "as §1"}, "EPHA4": {"target": "T20, EPHA4 (Homo sapiens, UniProt P54764)", "T20 construct": "purchased ProQinase", "T20 sequence (P54764 20-986)": "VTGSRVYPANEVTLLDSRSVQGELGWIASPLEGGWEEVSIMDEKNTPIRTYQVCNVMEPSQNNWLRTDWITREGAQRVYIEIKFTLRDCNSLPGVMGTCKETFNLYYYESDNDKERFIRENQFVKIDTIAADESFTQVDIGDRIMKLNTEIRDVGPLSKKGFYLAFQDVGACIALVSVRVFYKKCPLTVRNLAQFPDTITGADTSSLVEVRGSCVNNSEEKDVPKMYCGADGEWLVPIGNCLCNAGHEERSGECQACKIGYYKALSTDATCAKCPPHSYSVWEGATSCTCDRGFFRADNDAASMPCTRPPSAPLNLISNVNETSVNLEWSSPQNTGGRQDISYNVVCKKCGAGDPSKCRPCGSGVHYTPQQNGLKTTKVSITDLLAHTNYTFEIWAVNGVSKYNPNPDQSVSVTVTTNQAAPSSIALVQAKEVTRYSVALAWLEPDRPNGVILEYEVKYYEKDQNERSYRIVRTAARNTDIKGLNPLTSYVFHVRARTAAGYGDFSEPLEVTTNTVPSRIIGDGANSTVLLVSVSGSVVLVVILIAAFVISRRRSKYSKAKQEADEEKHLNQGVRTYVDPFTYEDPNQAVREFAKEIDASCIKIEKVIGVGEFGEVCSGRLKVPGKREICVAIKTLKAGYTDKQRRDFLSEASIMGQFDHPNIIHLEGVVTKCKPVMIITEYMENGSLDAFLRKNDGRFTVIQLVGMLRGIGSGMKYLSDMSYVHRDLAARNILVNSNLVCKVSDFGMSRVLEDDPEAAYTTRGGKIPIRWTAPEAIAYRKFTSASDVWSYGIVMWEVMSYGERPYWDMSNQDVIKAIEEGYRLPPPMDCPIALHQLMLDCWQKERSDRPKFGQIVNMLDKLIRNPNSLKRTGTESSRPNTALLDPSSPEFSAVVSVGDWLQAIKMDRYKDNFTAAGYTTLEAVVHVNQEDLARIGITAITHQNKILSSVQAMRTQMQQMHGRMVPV", "details": "EPHA4, 1 µM; read-out: Residual Activity (%)", "summary_of_the_method": "as §1"}, "RPS6KA2": {"target": "T21, RPS6KA2 (Homo sapiens, UniProt Q15349)", "T21 construct": "purchased ProQinase", "details": "RPS6KA2, 1 µM; read-out: Residual Activity (%)", "summary_of_the_method": "as §1"}, "CLK3": {"target": "T22, CLK3 (Homo sapiens, UniProt P49761)", "T22 construct": "purchased ProQinase", "details": "CLK3, 1 µM; read-out: Residual Activity (%)", "summary_of_the_method": "as §1"}, "PAK3": {"target": "T23, PAK3 (Homo sapiens, UniProt O75914)", "T23 construct": "purchased ProQinase", "details": "PAK3, 1 µM; read-out: Residual Activity (%)", "summary_of_the_method": "as §1"}, "PHKG2": {"target": "T24, PHKG2 (Homo sapiens, UniProt P15735)", "T24 construct": "purchased ProQinase", "details": "PHKG2, 1 µM; read-out: Residual Activity (%)", "summary_of_the_method": "as §1"}, "PRKD2": {"target": "T25, PRKD2 (Homo sapiens, UniProt Q9BZL6)", "T25 construct": "purchased ProQinase", "details": "PRKD2, 1 µM; read-out: Residual Activity (%)", "summary_of_the_method": "as §1"}, "TRK-C": {"target": "T26, TRK-C (Homo sapiens, UniProt Q16288)", "T26 construct": "purchased ProQinase", "T26 sequence (Q16288 32-839)": "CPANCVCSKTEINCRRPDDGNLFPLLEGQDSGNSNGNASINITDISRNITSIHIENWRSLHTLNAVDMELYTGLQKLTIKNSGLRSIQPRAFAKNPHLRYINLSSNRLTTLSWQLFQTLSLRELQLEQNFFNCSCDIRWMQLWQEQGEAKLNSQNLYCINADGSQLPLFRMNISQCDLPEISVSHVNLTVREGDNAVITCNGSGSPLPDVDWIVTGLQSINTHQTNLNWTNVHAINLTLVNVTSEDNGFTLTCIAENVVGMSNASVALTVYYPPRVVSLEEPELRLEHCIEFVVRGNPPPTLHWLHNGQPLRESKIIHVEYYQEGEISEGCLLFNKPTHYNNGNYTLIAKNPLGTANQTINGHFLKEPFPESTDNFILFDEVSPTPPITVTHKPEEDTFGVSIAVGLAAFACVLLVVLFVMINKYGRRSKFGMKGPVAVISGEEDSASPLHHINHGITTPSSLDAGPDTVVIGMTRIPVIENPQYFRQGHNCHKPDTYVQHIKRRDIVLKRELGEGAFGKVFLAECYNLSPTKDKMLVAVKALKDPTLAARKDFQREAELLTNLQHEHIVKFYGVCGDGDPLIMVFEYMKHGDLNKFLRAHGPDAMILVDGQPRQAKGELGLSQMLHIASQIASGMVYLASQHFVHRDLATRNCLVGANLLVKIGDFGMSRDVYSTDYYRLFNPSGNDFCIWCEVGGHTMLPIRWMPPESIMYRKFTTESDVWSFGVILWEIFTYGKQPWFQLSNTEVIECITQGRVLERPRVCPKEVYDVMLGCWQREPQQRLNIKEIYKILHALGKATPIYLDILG", "details": "read-out: Residual Activity (%)", "summary_of_the_method": "as §1"}, "PRKX": {"target": "T27, PRKX (Homo sapiens, UniProt P51817)", "T27 construct": "purchased ProQinase", "details": "read-out: Residual Activity (%)", "summary_of_the_method": "as §1"}, "VEGF-R3": {"target": "T28, VEGF-R3 (Homo sapiens, UniProt P35916)", "T28 construct": "purchased ProQinase", "T28 sequence (P35916 25-1363)": "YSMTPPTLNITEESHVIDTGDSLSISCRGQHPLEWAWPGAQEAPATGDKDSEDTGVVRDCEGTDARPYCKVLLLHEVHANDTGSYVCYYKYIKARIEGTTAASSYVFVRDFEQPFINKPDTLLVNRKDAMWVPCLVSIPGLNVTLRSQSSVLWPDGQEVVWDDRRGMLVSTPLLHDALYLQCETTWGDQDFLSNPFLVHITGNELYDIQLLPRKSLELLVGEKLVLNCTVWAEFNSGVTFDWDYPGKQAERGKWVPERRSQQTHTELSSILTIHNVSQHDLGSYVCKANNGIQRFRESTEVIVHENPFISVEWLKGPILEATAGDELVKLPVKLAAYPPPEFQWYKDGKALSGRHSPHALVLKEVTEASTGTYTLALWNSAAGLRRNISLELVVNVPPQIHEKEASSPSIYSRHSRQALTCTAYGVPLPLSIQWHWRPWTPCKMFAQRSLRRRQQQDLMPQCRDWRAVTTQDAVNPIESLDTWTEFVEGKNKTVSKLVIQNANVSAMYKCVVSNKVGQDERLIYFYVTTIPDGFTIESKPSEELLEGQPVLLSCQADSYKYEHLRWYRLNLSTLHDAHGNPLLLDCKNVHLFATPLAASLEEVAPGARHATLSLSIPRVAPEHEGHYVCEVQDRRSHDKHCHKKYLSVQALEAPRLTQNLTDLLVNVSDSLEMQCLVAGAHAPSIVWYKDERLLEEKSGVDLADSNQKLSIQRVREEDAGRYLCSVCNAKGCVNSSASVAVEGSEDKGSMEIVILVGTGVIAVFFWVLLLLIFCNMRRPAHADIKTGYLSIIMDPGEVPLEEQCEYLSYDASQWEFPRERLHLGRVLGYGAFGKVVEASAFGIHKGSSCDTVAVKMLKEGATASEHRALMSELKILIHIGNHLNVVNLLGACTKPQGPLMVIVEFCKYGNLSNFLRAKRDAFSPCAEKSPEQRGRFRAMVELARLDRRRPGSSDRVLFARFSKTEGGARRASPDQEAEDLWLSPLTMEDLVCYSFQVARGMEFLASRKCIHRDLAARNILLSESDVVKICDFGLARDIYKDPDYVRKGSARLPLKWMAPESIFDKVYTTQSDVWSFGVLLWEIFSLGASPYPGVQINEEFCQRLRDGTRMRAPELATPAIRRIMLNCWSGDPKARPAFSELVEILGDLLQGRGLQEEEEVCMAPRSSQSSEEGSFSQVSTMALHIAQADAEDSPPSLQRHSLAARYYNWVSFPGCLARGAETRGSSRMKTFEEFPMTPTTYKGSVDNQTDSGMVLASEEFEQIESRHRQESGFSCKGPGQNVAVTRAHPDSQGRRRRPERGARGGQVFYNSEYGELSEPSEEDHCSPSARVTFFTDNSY", "details": "VEGF-R3, 1 µM; read-out: Residual Activity (%)", "summary_of_the_method": "as §1"}, "STK25": {"target": "T29, STK25 (Homo sapiens, UniProt O00506)", "T29 construct": "purchased ProQinase", "details": "STK25, 1 µM; read-out: Residual Activity (%)", "summary_of_the_method": "as §1"}, "TTK": {"target": "T30, TTK (Homo sapiens, UniProt P33981)", "T30 construct": "purchased ProQinase", "details": "read-out: Residual Activity (%)", "summary_of_the_method": "as §1"}}, "data": [{"smiles": "COc1ccc(-c2cc(C(=O)Nc3cc(-c4c(-c5ccc(F)cc5)noc4C(C)C)ccn3)n(CC3NCC(O)C3O)c2)cc1", "note": "(stereo not drawn) [29d]", "values": [{"measurement": "remaining activity at 1 µM", "setting": "FES", "result": 120, "unit": "%"}, {"measurement": "remaining activity at 1 µM", "setting": "EGF-R", "result": 108, "unit": "%"}, {"measurement": "remaining activity at 1 µM", "setting": "RPS6KA1", "result": 84, "unit": "%"}, {"measurement": "remaining activity at 1 µM", "setting": "SGK2", "result": 101, "unit": "%"}, {"measurement": "remaining activity at 1 µM", "setting": "FYN", "result": 156, "unit": "%"}, {"measurement": "remaining activity at 1 µM", "setting": "HCK", "result": 110, "unit": "%"}, {"measurement": "remaining activity at 1 µM", "setting": "PKA", "result": 96, "unit": "%"}, {"measurement": "remaining activity at 1 µM", "setting": "DYRK2", "result": 96, "unit": "%"}, {"measurement": "remaining activity at 1 µM", "setting": "VRK1", "result": 117, "unit": "%"}, {"measurement": "remaining activity at 1 µM", "setting": "BTK", "result": 112, "unit": "%"}, {"measurement": "remaining activity at 1 µM", "setting": "AMPK-alpha1 aa1-550", "result": 99, "unit": "%"}, {"measurement": "remaining activity at 1 µM", "setting": "MUSK", "result": 97, "unit": "%"}, {"measurement": "remaining activity at 1 µM", "setting": "DCAMKL2", "result": 86, "unit": "%"}, {"measurement": "remaining activity at 1 µM", "setting": "ZAP70", "result": 116, "unit": "%"}, {"measurement": "remaining activity at 1 µM", "setting": "CDK1/CycA2", "result": 102, "unit": "%"}, {"measurement": "remaining activity at 1 µM", "setting": "MKK6 S207D/T211D**", "result": 91, "unit": "%"}, {"measurement": "remaining activity at 1 µM", "setting": "DYRK1B", "result": 104, "unit": "%"}, {"measurement": "remaining activity at 1 µM", "setting": "ACV-R1B", "result": 103, "unit": "%"}, {"measurement": "remaining activity at 1 µM", "setting": "MAPKAPK2", "result": 96, "unit": "%"}, {"measurement": "remaining activity at 1 µM", "setting": "EPHA4", "result": 100, "unit": "%"}, {"measurement": "remaining activity at 1 µM", "setting": "RPS6KA2", "result": 93, "unit": "%"}, {"measurement": "remaining activity at 1 µM", "setting": "CLK3", "result": 92, "unit": "%"}, {"measurement": "remaining activity at 1 µM", "setting": "PAK3", "result": 81, "unit": "%"}, {"measurement": "remaining activity at 1 µM", "setting": "PHKG2", "result": 93, "unit": "%"}, {"measurement": "remaining activity at 1 µM", "setting": "PRKD2", "result": 110, "unit": "%"}, {"measurement": "remaining activity at 1 µM", "setting": "TRK-C", "result": 105, "unit": "%"}, {"measurement": "remaining activity at 1 µM", "setting": "PRKX", "result": 92, "unit": "%"}, {"measurement": "remaining activity at 1 µM", "setting": "VEGF-R3", "result": 124, "unit": "%"}, {"measurement": "remaining activity at 1 µM", "setting": "STK25", "result": 98, "unit": "%"}, {"measurement": "remaining activity at 1 µM", "setting": "TTK", "result": 100, "unit": "%"}]}]}
